Test: Milk production (as is basis) in sorbitol feeding trials
Format: in vivo, Holstein cows
Procedure: Each cow of each of the six different trials (Control Trial #1, Control Trial #2, Pre-Partum Trial #1, Pre-Partum Trial #2, Pre/Post Trial #1, and Pre/Post Trial #2) was milked three times daily and the weight of produced milk by each cow was recorded at each milking. The milk from each cow was sampled once per week (⅓ of the sample volume from each of the three milkings occurring on the weekly milk sampling day) and was analyzed for true protein, total fat, lactose, and total solids, as detailed in the property determination and characterization techniques presented above. Additionally, samples of blood were periodically obtained from each cow during the four trials (Control Trial 2, Pre-Partum Trial #2, Pre/Post Trial #1, and Pre/Post Trial #2) encompassed in Example Two and were analyzed for non-esterified fatty acid (NEFA) content as detailed in the property determination and characterization techniques presented above. No NEFA analysis was conducted on the cows employed in Control Trial #1 or Pre-Partum Trial #1 that are the subject of Example One. Example One includes Control Trial #1 and Pre-Partum Trial #1. Both primiparious cows and multiparious cows were included in Control Trial #1 and Pre-Partum Trial #1. Five primiparious cows and fifteen multiparious cows were included in Control Trial #1; likewise, five primiparious cows and fifteen multiparious cows were included in Pre-Partum Trial #1. All cows included in Control Trial #1 and Pre-Partum Trial #1 were Holsteins. Example Two includes Control Trial #2, Pre-Partum Trial #2, Pre/Post Trial #1, and Pre/Post Trial #2. Only multiparious, Holstein cows were included in Control Trial #2, Pre-Partum Trial #1, Pre/Post Trial #1, and Pre/Post Trial #2. Eighteen multiparious cows were included in both Control Trial #2 and Pre-Partum Trial #2, while sixteen multiparious cows were included in Pre/Post Trial #1 and seventeen multiparious cows were included in Pre/Post Trial #2.

## OC[C@@H](O)[C@@H](O)[C@H](O)[C@@H](O)CO [sorbitol]
Pre-Partum Trial #1 (75/0/0 g/day in wk −3..−1/+1..+4/+5..+8), multiparious cows, weeks +1 through +8
  Milk Production (As Is Basis): 99.9 lbs/day
Pre-Partum Trial #1 (75/0/0 g/day in wk −3..−1/+1..+4/+5..+8), primiparious cows, weeks +1 through +8
  Milk Production (As Is Basis): 71.7 lbs/day
Pre-Partum Trial #1 (75 g/day wk −3..−1 only) versus Control Trial #1, multiparious cows, weeks +1 through +8
  increase in milk production: 9.2%
Pre-Partum Trial #2 (75/0/100 g/day in wk −3..−1/+1..+4/+5..+8), multiparious cows, week +1
  Milk Production (As Is Basis): 62.8 lbs/day
Pre-Partum Trial #2 (75/0/100 g/day in wk −3..−1/+1..+4/+5..+8), multiparious cows, week +2
  Milk Production (As Is Basis): 92.6 lbs/day
Pre-Partum Trial #2 (75/0/100 g/day in wk −3..−1/+1..+4/+5..+8), multiparious cows, week +3
  Milk Production (As Is Basis): 102 lbs/day
Pre-Partum Trial #2 (75/0/100 g/day in wk −3..−1/+1..+4/+5..+8), multiparious cows, week +4
  Milk Production (As Is Basis): 111 lbs/day
Pre-Partum Trial #2 (75/0/100 g/day in wk −3..−1/+1..+4/+5..+8), multiparious cows, week +5
  Milk Production (As Is Basis): 115 lbs/day
Pre-Partum Trial #2 (75/0/100 g/day in wk −3..−1/+1..+4/+5..+8), multiparious cows, week +6
  Milk Production (As Is Basis): 115 lbs/day
Pre-Partum Trial #2 (75/0/100 g/day in wk −3..−1/+1..+4/+5..+8), multiparious cows, week +7
  Milk Production (As Is Basis): 115 lbs/day
Pre-Partum Trial #2 (75/0/100 g/day in wk −3..−1/+1..+4/+5..+8), multiparious cows, week +8
  Milk Production (As Is Basis): 111 lbs/day
Pre-Partum Trial #2 (75/0/100 g/day in wk −3..−1/+1..+4/+5..+8), multiparious cows, weeks +1 through +4
  Milk Production (As Is Basis): 92.0 lbs/day
Pre-Partum Trial #2 (75/0/100 g/day in wk −3..−1/+1..+4/+5..+8), multiparious cows, weeks +1 through +8
  Milk Production (As Is Basis): 103 lbs/day
Pre-Partum Trial #2 (75/0/100 g/day in wk −3..−1/+1..+4/+5..+8), multiparious cows, weeks +5 through +8
  Milk Production (As Is Basis): 115 lbs/day
Pre/Post Trial #1 (150/125/100 g/day in wk −3..−1/+1..+4/+5..+8), multiparious cows, week +1
  Milk Production (As Is Basis): 67.9 lbs/day
Pre/Post Trial #1 (150/125/100 g/day in wk −3..−1/+1..+4/+5..+8), multiparious cows, week +1, two-trial comparison with Control Trial #2 (Table 23)
  Milk Production (As Is Basis): 68.4 lbs/day
Pre/Post Trial #1 (150/125/100 g/day in wk −3..−1/+1..+4/+5..+8), multiparious cows, week +2
  Milk Production (As Is Basis): 93.8 lbs/day
Pre/Post Trial #1 (150/125/100 g/day in wk −3..−1/+1..+4/+5..+8), multiparious cows, week +2, two-trial comparison with Control Trial #2 (Table 23)
  Milk Production (As Is Basis): 93.9 lbs/day
Pre/Post Trial #1 (150/125/100 g/day in wk −3..−1/+1..+4/+5..+8), multiparious cows, week +3
  Milk Production (As Is Basis): 104 lbs/day
Pre/Post Trial #1 (150/125/100 g/day in wk −3..−1/+1..+4/+5..+8), multiparious cows, week +3, two-trial comparison with Control Trial #2 (Table 23)
  Milk Production (As Is Basis): 104 lbs/day
Pre/Post Trial #1 (150/125/100 g/day in wk −3..−1/+1..+4/+5..+8), multiparious cows, week +4
  Milk Production (As Is Basis): 109 lbs/day
Pre/Post Trial #1 (150/125/100 g/day in wk −3..−1/+1..+4/+5..+8), multiparious cows, week +4, two-trial comparison with Control Trial #2 (Table 23)
  Milk Production (As Is Basis): 109 lbs/day
Pre/Post Trial #1 (150/125/100 g/day in wk −3..−1/+1..+4/+5..+8), multiparious cows, week +5
  Milk Production (As Is Basis): 113 lbs/day
Pre/Post Trial #1 (150/125/100 g/day in wk −3..−1/+1..+4/+5..+8), multiparious cows, week +5, two-trial comparison with Control Trial #2 (Table 23)
  Milk Production (As Is Basis): 113 lbs/day
Pre/Post Trial #1 (150/125/100 g/day in wk −3..−1/+1..+4/+5..+8), multiparious cows, week +6
  Milk Production (As Is Basis): 113 lbs/day
Pre/Post Trial #1 (150/125/100 g/day in wk −3..−1/+1..+4/+5..+8), multiparious cows, week +6, two-trial comparison with Control Trial #2 (Table 23)
  Milk Production (As Is Basis): 113 lbs/day
Pre/Post Trial #1 (150/125/100 g/day in wk −3..−1/+1..+4/+5..+8), multiparious cows, week +7
  Milk Production (As Is Basis): 112 lbs/day
Pre/Post Trial #1 (150/125/100 g/day in wk −3..−1/+1..+4/+5..+8), multiparious cows, week +7, two-trial comparison with Control Trial #2 (Table 23)
  Milk Production (As Is Basis): 112 lbs/day
Pre/Post Trial #1 (150/125/100 g/day in wk −3..−1/+1..+4/+5..+8), multiparious cows, week +8
  Milk Production (As Is Basis): 114 lbs/day
Pre/Post Trial #1 (150/125/100 g/day in wk −3..−1/+1..+4/+5..+8), multiparious cows, week +8, two-trial comparison with Control Trial #2 (Table 23)
  Milk Production (As Is Basis): 115 lbs/day
Pre/Post Trial #1 (150/125/100 g/day in wk −3..−1/+1..+4/+5..+8), multiparious cows, weeks +1 through +4
  Milk Production (As Is Basis): 93.6 lbs/day
Pre/Post Trial #1 (150/125/100 g/day in wk −3..−1/+1..+4/+5..+8), multiparious cows, weeks +1 through +4, two-trial comparison with Control Trial #2 (Table 23)
  Milk Production (As Is Basis): 94.1 lbs/day
Pre/Post Trial #1 (150/125/100 g/day in wk −3..−1/+1..+4/+5..+8), multiparious cows, weeks +1 through +8
  Milk Production (As Is Basis): 103 lbs/day
Pre/Post Trial #1 (150/125/100 g/day in wk −3..−1/+1..+4/+5..+8), multiparious cows, weeks +1 through +8, two-trial comparison with Control Trial #2 (Table 23)
  Milk Production (As Is Basis): 104 lbs/day
Pre/Post Trial #1 (150/125/100 g/day in wk −3..−1/+1..+4/+5..+8), multiparious cows, weeks +5 through +8
  Milk Production (As Is Basis): 113 lbs/day
Pre/Post Trial #1 (150/125/100 g/day in wk −3..−1/+1..+4/+5..+8), multiparious cows, weeks +5 through +8, two-trial comparison with Control Trial #2 (Table 23)
  Milk Production (As Is Basis): 113 lbs/day
Pre/Post Trial #2 (75/75/100 g/day in wk −3..−1/+1..+4/+5..+8), multiparious cows, week +1
  Milk Production (As Is Basis): 66.4 lbs/day
Pre/Post Trial #2 (75/75/100 g/day in wk −3..−1/+1..+4/+5..+8), multiparious cows, week +2
  Milk Production (As Is Basis): 92.8 lbs/day
Pre/Post Trial #2 (75/75/100 g/day in wk −3..−1/+1..+4/+5..+8), multiparious cows, week +3
  Milk Production (As Is Basis): 102 lbs/day
Pre/Post Trial #2 (75/75/100 g/day in wk −3..−1/+1..+4/+5..+8), multiparious cows, week +4
  Milk Production (As Is Basis): 108 lbs/day
Pre/Post Trial #2 (75/75/100 g/day in wk −3..−1/+1..+4/+5..+8), multiparious cows, week +5
  Milk Production (As Is Basis): 113 lbs/day
Pre/Post Trial #2 (75/75/100 g/day in wk −3..−1/+1..+4/+5..+8), multiparious cows, week +6
  Milk Production (As Is Basis): 113 lbs/day
Pre/Post Trial #2 (75/75/100 g/day in wk −3..−1/+1..+4/+5..+8), multiparious cows, week +7
  Milk Production (As Is Basis): 110 lbs/day
Pre/Post Trial #2 (75/75/100 g/day in wk −3..−1/+1..+4/+5..+8), multiparious cows, week +8
  Milk Production (As Is Basis): 108 lbs/day
Pre/Post Trial #2 (75/75/100 g/day in wk −3..−1/+1..+4/+5..+8), multiparious cows, weeks +1 through +4
  Milk Production (As Is Basis): 91.7 lbs/day
Pre/Post Trial #2 (75/75/100 g/day in wk −3..−1/+1..+4/+5..+8), multiparious cows, weeks +1 through +8
  Milk Production (As Is Basis): 102 lbs/day
Pre/Post Trial #2 (75/75/100 g/day in wk −3..−1/+1..+4/+5..+8), multiparious cows, weeks +5 through +8
  Milk Production (As Is Basis): 111 lbs/day

From patent publication US9179694B2, “Method and composition for enhancing milk production and milk component concentrations” (PURINA ANIMAL NUTRITION LLC, priority 2003, dated 2015)
